Measurements: publication PMC3707936 (Molecular cancer therapeutics, 2013)
Like-named read-outs stand apart in the source and are kept apart here.

Experiments:
GIST-T1 cells [1] = assay: Quantitative drug screen, CellTiter-Blue cell viability, GIST-T1; assay type: cell-based; details: read-out: IC50 GIST-T1; primary screen, 72 h, 10 μM to […] twofold dilutions; * = IC50 < 0.07 μM and drug showed no dose response
GIST-T1 cells [2] = assay: Hit validation cell proliferation, 12-point dose-response, GIST-T1; assay type: cell-based
GIST 882 cells [3] = assay: Hit validation cell proliferation, 12-point dose-response, GIST 882; assay type: cell-based; details: GIST 882, 1 μM, 72 hour
GIST T1-10R cells [4] = assay: Hit validation cell proliferation, 12-point dose-response, GIST T1-10R; assay type: cell-based
[5] = system: reactive oxygen species (ROS); assay: Intracellular ROS activity measurement; assay type: cell-based
phospho-c-KIT (Tyr719) = assay: Western blot, phospho-c-KIT in GIST cells; assay type: cell-based
phospho-AKT (Ser473) = assay: Western blot, phospho-AKT; assay type: cell-based; details: GIST 882 cells, all auranofin treatments, 6 h; site not specified
[6] = system: phospho-ERK1/2 (Thr202/Tyr204); assay: Western blot, phospho-ERK1/2 in GIST cells; assay type: cell-based; details: for pERK1/2 level, fold change: GIST T1-10R cells, 6 hours
GIST-T1 cells [7] = assay: Early apoptosis assay; assay type: cell-based; details: GIST-T1, 1 μM, 24 h, Annexin V
GIST T1-10R cells [8] = assay: Early apoptosis assay; assay type: cell-based; details: 1 μM, 24 h, Annexin V
GIST 882 cells [9] = assay: Early apoptosis assay; assay type: cell-based; details: GIST 882, 1 μM, 24 h, Annexin V
Caspase 3/7 = Caspase 3/7 activity assay in GIST cells; assay type: cell-based; details: 0.1 and 1 μM, 72 hours
[10] = system: thioredoxin reductase (TrxR); details: for TrxR activity: 6 h
[11] = GIST 882 cells, all auranofin treatments, 6 h

With `CC(=O)OC[C@H]1O[C@@H]([S-])[C@H](OC(C)=O)[C@@H](OC(C)=O)[C@@H]1OC(C)=O.CCP(CC)CC.[Au+]` [Auranofin] the IC50 (GIST-T1 cells [1]) was 230 nM, the cell viability (GIST-T1 cells [2]; GIST-T1, 1 μM, 72 hour) was “decrease in cell viability” and the “cell proliferation induced by low-dose treatment, fold” value (GIST-T1 cells [2]; GIST-T1, low-dose, 72 hour) was 1.1–1.2 fold. The IC50 (GIST-T1 cells [2]; read-out: IC50 GIST-T1, hit validation, 12-point 20 μM to 1 nM, triplicate, 72 h) was 250 ± 150 nM, the cell viability (GIST 882 cells [3]) was “decrease in cell viability” and the cell viability (GIST T1-10R cells [4]; GIST T1-10R, 1 μM, 72 hour) was “decrease in cell viability”. For the same compound, the “cell proliferation induced by low-dose treatment, fold” value (GIST T1-10R cells [4]; GIST T1-10R, low-dose, 72 hour) was 1.1–1.2 fold, the IC50 (GIST T1-10R cells [4]; read-out: IC50 GIST T1-10R, hit validation, 12-point 20 μM to 1 nM, triplicate, 72 h) was 20 ± 10 nM and the “ROS production, fold change” value ([5]; GIST 882 cells, 1 and 10 μM, 6 h) was 1.5 fold. The “ROS, fold change vs vehicle-treated cells” value ([5]; GIST 882 cells, across all auranofin treatments) was ~ 1.5 fold, the “ROS formation, fold change” value ([5]; GIST T1-10R cells, 1 and 10 μM, 6 h) was 2.6 fold and the ROS ([5]; all three GIST cell lines, 0.01 and 0.1 μM, 6 h) was “remained relatively stable”. For the same compound, the “ROS production with longer treatment” value ([5]; all three GIST cell lines, longer treatment) was “induces higher production of ROS”, the “phosphorylated level of cKIT” value (phospho-c-KIT (Tyr719); [11]) was “does not noticeably alter” and the “p-cKT level, fold change” value (phospho-c-KIT (Tyr719); GIST-T1 cells, 1 or 10 μM, 6 hours) was ~ 0.5 fold. For the same compound, the “phosphorylated level of AKT” value (phospho-AKT (Ser473)) was “does not noticeably alter”, the “phosphorylated level of ERK” value [6, 11] was “does not noticeably alter” and the “pERK1/2 level, fold change” value ([6]; 0.01 μM) was ~ 3.0 fold. For the same compound, the “pERK1/2 level, fold change” value ([6]; 0.1 μM) was ~ 3.6 fold, the “pERK1/2 level, fold change” value ([6]; 1 μM) was ~ 2.7 fold and the “pERK1/2 level, fold change” value ([6]; 010 μM) was ~ 2.4 fold. For the same compound, the “fraction of early apoptotic cells, fold increase” value (“fraction … fold increase” below) (GIST-T1 cells [7]) was ~ 4 fold, the “fraction … fold increase” value (GIST T1-10R cells [8]) was ~ 2.8 fold and the “fraction … fold increase” value (GIST 882 cells [9]) was ~ 2.3 fold. The “Caspase 3/7 activity” value (Caspase 3/7) was “able to increase”, the TrxR activity ([10]; GIST T1-10R cells, 0.01 and 0.1 μM) was “significant decrease” and the TrxR activity ([10]; all three GIST cell lines, 1.0 and 10 μM) was “dramatically reduces”. For the same compound, the TrxR enzymatic activity ([10]; exposure up to 24 hours at 1 μM) was “inhibited”.
